Test results reported in ChEMBL document CHEMBL1126434, “Anti-allergic and anti-inflammatory actions of 2-(tetrazole-5-yl)-4-hydroxy-2-methyl-2H-1,2-benzothiazine-3-carboxanilide 1,1-dioxide” (1992).

Tests used:
Format in all cases: functional
Rattus norvegicus [1] = species: Rattus norvegicus; assay: Compound was evaluated for the inhibition of biosynthesis of prostaglandins at a concentration of 10e3 M
Rattus norvegicus [2] = assay: Compound was assessed for ulcerogenicity in rats at a dose of 300 mg/kg
Rattus norvegicus [3] = species: Rattus norvegicus; assay: Compound was evaluated for the inhibition of biosynthesis of prostaglandins at a concentration of 10e4 M
Rattus norvegicus [4] = species: Rattus norvegicus; assay: Compound was evaluated for the inhibition of biosynthesis of prostaglandins at a concentration of 10e5 M
Rattus norvegicus [5] = assay: Compound was assessed for ulcerogenicity in rats at a dose of 500 mg/kg

SMILES	Inhibition (Rattus norvegicus [1]) [%]	Ulcer index (Rattus norvegicus [2])	Inhibition (Rattus norvegicus [3]) [%]	Inhibition (Rattus norvegicus [4]) [%]	Ulcer index (Rattus norvegicus [5])
CN1C(C(=O)Nc2ccccc2-c2nn[nH]n2)=C(O)c2ccccc2S1(=O)=O	0	0	0	0	0
COc1ccc(/C=C/C(=O)Nc2ccccc2C(=O)O)cc1OC [TRANILAST]	0	0	0	0	0
